Results as given in patent US20100028465A1, “COMPOSITION FOR AMELIORATING CEREBRAL FUNCTION” (priority 2007, published 2010).
Entries after “also recorded” stand apart in the source; their conditions may differ.

Assays:
[1] = tested on: memory disorder model rats with defect in the cholinergic neuron (ibotenic acid); assay: Morris water maze test (acquisition and probe trials) in memory disorder model rats; format: in vivo, rat
[2] = tested on: intracerebral monoamines: norepinephrine (NE), 5-hydroxyindole acetic acid (5-HIAA); assay: Monoamine content in cerebral cortex and hippocampus of memory disorder model rats (HPLC-ECD); format: in vivo, rat; settings: 1 mg/kg/day oral, day 14
Procedure: Then, the increase and decrease in the concentrations of those intracerebral substances in rats of each group in Example 2 were measured.
That is, the brains of the memory disorder model rats prepared in Example 2 were extirpated and the contents of the monoamines in the cerebral cortex and hippocampus were measured.
On day 14 after administration, 5 rats each in 5 groups of the ibotenic acid-untreated group, non-administration control group, low dose ASL group, high dose ASL group, and positive control group in Example 2 were decapitated with a decapitation machine and the brains were taken out. The brains were put in an ice-cold physiological saline (Otsuka Pharmaceutical Co., Ltd.). Next, the brains were taken out and the cerebral cortex and hippocampus were then taken from the divided brains and the contents of the monoamines and a metabolite thereof were measured. The measurement method is shown in (a) to (c) below.
0.2 N […] solution was added to a brain sample in a container, and thereafter, an internal standard solution was added thereto, followed by homogenizing with a homogenizer. After being ice-cooled for 60 minutes or more, the resultant was centrifuged with a refrigerated centrifuge (about 4° C., 13,800 rpm, 5 minutes), and the supernatant was used as a measurement sample.
Mobile phase: a mixture containing 0.1 mol/Lacetic acid-citric acid buffer (pH 3.5), methanol, 100 mg/ml sodium 1-octane sulfonate solution, and 5 mg/ml EDTA·2·Na solution at a ratio of 830:170:1.85:1

[3] = tested on: PC-12 cell; assay: Neurite extension / differentiation of PC-12 cell (differentiated cell ratio); format: cell-based; settings: Example 6, non-addition 9.85
Description: Regarding three fractions purified in Example 4, i.e. the fraction 1 (containing N-acylsphinganine), the fraction 2 (containing the hopanoids), and the fraction 3 (containing sphinganine and the amino lipids), the absence or presence of an action of extending and differentiating the neurite as a neurotrophic factor-like action was confirmed using PC-12 cell as a neural model cell.
Note that, in the same manner as in Example 4, 10 g of the alkali-stable lipid was loaded into a silica gel column equilibrated with chloroform. The column was washed with a solvent prepared by mixing chloroform and acetic acid at a volume ratio of 100:1, and eluted with a solvent having a ratio of chloroform to methanol of 2:1, whereby a fraction containing all of the constituent lipids of the fraction 1, fraction 2, and fraction 3 was prepared. The fraction was used as an alkali-stable lipid fraction not containing a fatty acid. Then, the presence or the absence of the action of extending and differentiating the neurite was confirmed similarly.
PC-12 cell (RCB0009) purchased from RIKEN BIORESOURCE CENTER was used. […]
After that, the resultant was cultured at 37° C. and under 5% CO2 for 48 hours. […] The total number of cells and the number of the differentiated cells in the viewing area were counted. […] Then, the average of 10 photographs in which the numbers were counted was calculated. […]

Row | SMILES | escape latency in acquisition trials vs non-administration control group ([1]; 1 mg per 1 kg rat weight per day, oral, trials day 10 to 13) | escape latency in the seventh trial vs non-administration control group (Steel's test, p<0.05) ([1]; 1 mg/kg/day oral) | retention time in the fourth quadrant in probe trial ([1]; 1 mg/kg/day oral, day 14) | number of crossings of platform location in probe trial vs non-administration control group ([1]; 1 mg/kg/day oral, day 14, p<0.05 Steel's test) | 5-HIAA content in hippocampus [2] | 5-HIAA content in cerebral cortex ([2]; hydrochloride) | NE content in cerebral cortex ([2]; hydrochloride) | NE content in hippocampus ([2]; hydrochloride) | Differentiated cell ratio (%) of PC-12 cell 48 hours after addition ([3]; addition concentration 5 μg/ml) | Differentiated cell ratio (%) of PC-12 cell 48 hours after addition ([3]; addition concentration 25 μg/ml)
1 | Cl.Nc1c2c(nc3ccccc13)CCCC2 [positive control, 9-amino-1,2,3,4-tetrahydroacridine hydrochloride] | tended to be short | no significant difference | did not tend to be long | significant increase | increasing tendencies | increasing tendencies; also recorded: recovered to the level close to those of the ibotenic acid-untreated group | increasing tendencies; also recorded: recovered to the level close to those of the ibotenic acid-untreated group | increasing tendencies; also recorded: recovered to the level close to that of the ibotenic acid-untreated group |  | 
2 | CCCCCCCCCCCCCCC[C@@H](O)[C@H](CO)NC(=O)C(O)CCCCCCCCCCCCCC (stereo partly shown) [N-2′-hydroxypalmitoyl-sphinganine] |  |  |  |  |  |  |  |  | 19.49% | 17.44%
